Literature values in US6723530B1, “Polynucleotides encoding proexendin, and methods and uses thereof” (Amylin Pharmaceuticals, Inc., priority 1997, dated 2004).
No end group written: not given here.

How the values were obtained:
[1] = tested on: guinea pig acinar cell preparations
[2] = tested on: cultured islet cell lines; settings: cultured islet cell lines in vitro
[3] = tested on: GLP-1

Substance: exendin 4
- cAMP levels [1]: increased
- cAMP accumulation [2]: increase
- glucose-dependent insulin secretion [2]: stimulate
- insulin gene expression [2]: increase
- mode of action towards GLP-1 (agonist / antagonist) [3]: strong agonist

Substance: exendin 4(9-39)NH3: truncated exendin 4, competitive antagonist of both exendin 4 and GLP-1
- mode of action towards GLP-1 (agonist / antagonist) [3]: competitive antagonist

Substance: truncated GLP-1[7-36)-amide: truncated mammalian GLP-1 peptide amide (HAEGTFTSDVSSYLEGQAAKEFIAWLVKGR-NH2)
- cAMP levels [1]: increased
